Measured values reported in patent publication US20040082551A1, “Novel pyrazoles and their use as p38 kinase inhibitors” (priority 2002, published 2004).
Structures can show the parent of a compound that is named as a salt.

Each compound was assayed against T1, human p38 kinase alpha (Homo sapiens, UniProt Q16539) (assay: In vitro p38 kinase inhibition analysis (PHAS-I 32P-ATP or EGFRP 33P-ATP format)). Conditions: Table 1; compounds of Examples 1-28; one of two in vitro assay methods; Hydrochloride Hydrate; read-out: p38α Kinase Inhibition (IC50 in μM).
T1 construct: The coding region of the human p38α cDNA was obtained by PCR-amplification from RNA isolated from the human monocyte cell line THP.1; made in house; host or cells: E. coli DH10B
T1 sequence (Q16539 whole entry): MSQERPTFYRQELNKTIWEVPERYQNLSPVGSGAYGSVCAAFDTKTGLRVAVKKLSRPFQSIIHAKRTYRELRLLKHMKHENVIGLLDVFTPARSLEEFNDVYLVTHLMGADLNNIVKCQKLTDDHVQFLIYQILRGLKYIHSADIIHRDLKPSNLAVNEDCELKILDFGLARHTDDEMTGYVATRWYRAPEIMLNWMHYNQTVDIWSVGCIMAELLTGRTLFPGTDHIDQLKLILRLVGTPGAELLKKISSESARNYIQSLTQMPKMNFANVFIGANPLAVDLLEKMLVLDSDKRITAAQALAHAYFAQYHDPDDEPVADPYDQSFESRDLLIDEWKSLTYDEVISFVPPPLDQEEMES
Format: biochemical
Protocol: The ability of compounds to inhibit human p38 kinase alpha was evaluated using one of two in vitro assay methods. In the first method, activated human p38 kinase alpha phosphorylates a biotinylated substrate, PHAS-I (phosphorylated heat and acid stable protein-insulin inducible), in the presence of gamma ^32P-ATP (^32P-ATP). PHAS-I was biotinylated before the assay, and provided a means of capturing the substrate which was phosphorylated during the assay. p38 Kinase was activated by MKK6. Compounds were tested in 10 fold serial dilutions over the range of 100 μM to 0.001 μM using 1% DMSO. Each concentration of inhibitor was tested in triplicate.
All reactions were carried out in 96 well polypropylene plates. Each reaction well contained 25 mM HEPES pH 7.5, 10 mM magnesium acetate, and 50 μM unlabeled ATP. […] Activated human p38 kinase alpha was used at 1 μg per 50 μl reaction volume, representing a final concentration of 0.3 μM. Gamma ^32P-ATP was used to follow the phosphorylation of PHAS-I. ^32P-ATP has a specific activity of 3000 Ci/mmol, and was used at 1.2 μCi per 50 μl reaction volume. The reaction proceeded either for one hr or overnight at 30° C.
Following incubation, 20 μl of reaction mixture was transferred to a high capacity streptavidin coated filter plate (SAM-streptavidin-matrix, Promega) prewetted with phosphate buffered saline. The transferred reaction mix was allowed to contact the streptavidin membrane of the Promega plate for 1-2 min. […] Filter plates were air dried and 20 μl of scintillant was added. The plates were sealed and counted.
A second assay format was alternatively employed. This assay is based on p38 kinase alpha being induced phosphorylation of EGFRP (epidermal growth factor receptor peptide, a 21 mer) in the presence of ^33P-ATP. Compounds were tested in 10 fold serial dilutions over the range of 100 μM to 0.001 μM in 10% DMSO. Each concentration of inhibitor was tested in triplicate. Compounds were evaluated in 50 μl reaction volumes in the presence of 25 mM HEPES pH 7.5, 10 mM magnesium acetate, 4% glycerol, 0.4% bovine serum albumin, 0.4 mM DTT, 50 μM unlabeled ATP, 25 μg EGFRP (200 μM), and 0.05 uCi gamma ^33P-ATP. Reactions were initiated by addition of 0.09 μg of activated, purified human GST-p38 kinase alpha. Activation was carried out using GST-MKK6 (5:1,p38:MKK6) for one hr at 30° C. in the presence of 50 μM ATP. Following incubation for 60 min at room temperature, the reaction was stopped by addition of 150 μl of AG 1×8 resin in 900 mM sodium formate buffer, pH 3.0 (1 volume resin to 2 volumes buffer). The mixture was mixed three times with pipetting. Afterward, the resin was allowed to settle. A total of 50 μl of clarified solution head volume was transferred from the reaction wells to Microlite-2 plates. 150 μl of Microscint 40 was then added to each well of the Microlite plate, and the plate was sealed, mixed, and counted.

Row | IC50 [µM] | Compound
1 | 0.0582 | Clc1ccc(-c2n[nH]c([C@H]3CC[C@H](N4CCCCC4)CC3)c2-c2ccncn2)cc1 [Example 8, 4-[3-(4-chlorophenyl)-5-(4-piperidin-1-ylcyclohexyl)-1H-pyrazol-4-yl]pyrimidine Hydrochloride Hydrate]

Same assay, conditions: Table 1; compounds of Examples 1-28; one of two in vitro assay methods; Trifluoroacetate; read-out: p38α Kinase Inhibition (IC50 in μM)

Row | IC50 [µM] | Compound
2 | 0.0285 | OC[C@H]1CCCN1[C@H]1CC[C@H](c2[nH]nc(-c3ccc(Cl)cc3)c2-c2ccncn2)CC1 [Example 9, ((2R)-1-{4-[3-(4-chlorophenyl)-4-pyrimidin-4-yl-1H-pyrazol-5-yl]cyclohexyl)pyrrolidin-2-yl)methanol Trifluoroacetate]

Same assay, conditions: Table 1; compounds of Examples 1-28; one of two in vitro assay methods; read-out: p38α Kinase Inhibition (IC50 in μM)

Row | Compound | IC50 [µM]
3 | CC(c1ccc(C(C)(C)O)cc1)N1CCC(c2[nH]nc(-c3ccc(Cl)cc3)c2-c2ccncn2)CC1 (stereo not shown) [Example 18, 2-[4-(1-{4-[3-(4-chlorophenyl)-4-pyrimidin-4-yl-1H-pyrazol-5-yl]piperidin-1-yl}ethyl)phenyl]propan-2-ol] | 0.0106
4 | Clc1ccc(-c2n[nH]c([C@H]3CC[C@H](NC4CCCCC4)CC3)c2-c2ccncn2)cc1 [Example 4] | 0.0379
5 | C[C@@H](N[C@H]1CC[C@H](c2[nH]nc(-c3ccc(Cl)cc3)c2-c2ccncn2)CC1)c1ccccc1 [Example 1, 4-[3-(4-chlorophenyl)-4-pyrimidin-4-yl-1H-pyrazol-5-yl]-N-[(1R)-1-phenylethyl]-trans-cyclohexanamine] | 0.0314

Same assay, conditions: Table 2; additional pyrazole compounds, Examples 56-169; read-out: p38α Kinase Inhibition (IC50 in μM)

Row | Compound | IC50 [µM]
6 | O=C(CO)N1CCC(c2[nH]nc(-c3ccc(Cl)cc3O)c2-c2ccncn2)CC1 [Example 98] | 1.31
7 | O=C(CO)N1CCC(c2[nH]nc(-c3ccc(F)cc3F)c2-c2ccncn2)CC1 [Example 67] | 0.248
8 | O=C([C@@H](O)CO)N1CCC(c2[nH]nc(-c3ccc(Cl)cc3)c2-c2ccncn2)CC1 [Example 65] | 0.256
9 | O=C(CO)N1CCC(c2[nH]nc(-c3ccc(F)c(Cl)c3)c2-c2ccncn2)CC1 [Example 70] | 0.147
10 | O=C(CO)N1CCC(c2[nH]nc(-c3ccc(F)c(F)c3)c2-c2ccncn2)CC1 [Example 60] | 0.753
11 | O=C(CO)N1CCC(c2[nH]nc(-c3ccc(Cl)cc3)c2-c2ccnc(O)n2)CC1 [Example 59] | 15.8
12 | O=C(CO)N1CCC(c2[nH]nc(-c3cc(F)ccc3F)c2-c2ccncn2)CC1 [Example 87] | 1.75
13 | COc1cccc(-c2n[nH]c(C3CCN(C(=O)CO)CC3)c2-c2ccncn2)c1 [Example 85] | 2.1
14 | C[C@H](O)[C@@H](O)C(=O)N1CCC(c2[nH]nc(-c3ccc(Cl)cc3)c2-c2ccncn2)CC1 [Example 64] | 0.596
15 | O=C(CO)N1CCC(c2[nH]nc(-c3cccc(F)c3F)c2-c2ccncn2)CC1 [Example 80] | 2.45
16 | COc1cc(Cl)ccc1-c1n[nH]c(C2CCN(C(=O)CO)CC2)c1-c1ccncn1 [Example 79] | 19.3
17 | Cc1ccc(-c2n[nH]c(C3CCN(C(=O)CO)CC3)c2-c2ccncn2)cc1Cl [Example 71] | 0.444
18 | CCN1CCN([C@H]2CC[C@H](c3[nH]nc(-c4ccc(Cl)cc4)c3-c3ccncn3)CC2)CC1 [Example 58] | 0.0649

Further lines, results first:

Row | IC50 [µM] | Compound
19 | 0.727 | CN(C)CCOc1nccc(-c2c(-c3cccc(Cl)c3)n[nH]c2C2CCN(C(=O)CO)CC2)n1 [Example 116]
20 | 0.00576 | C[C@H](N[C@H]1CC[C@H](c2[nH]nc(-c3ccc(Cl)cc3)c2-c2ccncn2)CC1)c1ccc(F)cc1 [Example 128]
21 | 0.053 | O=C(CO)N1CCC(c2[nH]nc(-c3ccc(Cl)cc3)c2-c2ccnc(NC3CCN(Cc4ccccc4)CC3)n2)CC1 [Example 151]
22 | 1 | CN1CCC(c2[nH]nc(-c3ccc(Cl)cc3F)c2-c2ccnc(NC3CCCC3)n2)CC1 [Example 168]
23 | 0.0032 | O=C(CO)N1CCC(c2[nH]nc(-c3ccc(F)c(C(F)(F)F)c3)c2-c2ccnc(NC3CCCC3)n2)CC1 [Example 169]
24 | 0.814 | CN(C)CCNc1nccc(-c2c(-c3ccc(F)c(C(F)(F)F)c3)n[nH]c2C2CCN(C(=O)CO)CC2)n1 [Example 118]
25 | 0.01 | CC(C)(C)OC(=O)N1CCC(c2[nH]nc(-c3ccc(Cl)cc3)c2-c2ccnc(NC3CCCC3)n2)CC1 [Example 140]
26 | 0.202 | CN(C)CCNc1nccc(-c2c(-c3ccc(Cl)cc3F)n[nH]c2C2CCNCC2)n1 [Example 161]
27 | 0.0449 | C[C@@H](N[C@H]1CC[C@@H](c2[nH]nc(-c3ccc(Cl)cc3)c2-c2ccncn2)CC1)c1ccccc1 [Example 122]
28 | 1.1 | CN(C)CCNc1nccc(-c2c(-c3ccc(F)c(C(F)(F)F)c3)n[nH]c2C2CCN(C)CC2)n1 [Example 166]
29 | 0.159 | CN(C)CCNc1nccc(-c2c(-c3ccc(Cl)cc3)n[nH]c2C2CCNCC2)n1 [Example 144]
30 | 0.0438 | CN(C)CC(=O)OCC(=O)N1CCC(c2[nH]nc(-c3ccc(Cl)cc3)c2-c2ccncn2)CC1 [Example 130]
31 | 0.13 | C[C@@H](N[C@H]1CC[C@@H](c2[nH]nc(-c3ccc(Cl)cc3)c2-c2ccncn2)CC1)c1ccc(F)cc1 [Example 126]
32 | 5.18 | C[C@H](O)C(=O)N1CCC(c2[nH]nc(-c3cccc(C(F)(F)F)c3F)c2-c2ccncn2)CC1 [Example 112]
33 | 4.4 | CN(C)CCNc1nccc(-c2c(-c3ccc(Cl)cc3F)n[nH]c2C2CCN(C(=O)OC(C)(C)C)CC2)n1 [Example 160]
34 | 0.0063 | CN1CCC(c2[nH]nc(-c3ccc(F)c(C(F)(F)F)c3)c2-c2ccnc(NC3CCCC3)n2)CC1 [Example 167]
